Data as given in US9493485B2, “Spirocyclic dihydro-thiazine and dihydro-oxazine BACE inhibitors, and compositions and uses thereof” (Imago Pharmaceuticals, Inc., priority 2012, dated 2016).

Columns and labels:
Aβ x-40 levels = experiment: In vivo reduction of Aβ x-40 levels in Sprague Dawley rat, oral dosing; details: for effect on brain Aβ x-40 levels / decrease of the mean Aβ x-40 compared to vehicle control in brain samples: rat cortical brain, 3 hours post dosing
Protocol: Ability of a compound as described herein to reduce the level of Aβ peptide in vivo was determined in a Sprague Dawley rat model. Compounds were dosed orally in female Sprague Dawley rats, along with a vehicle control, five rats per dose group. Compounds were formulated in 5% DMSO/0.5% methylcellulose, and dosed at various amounts (10 mL/kg), and 10 mL/kg vehicle by oral gavage. CSF was collected from the cistern magna under isoflurane anesthesia, frozen on dry ice and stored at −80° C. until assessed for Aβ peptide levels. […] Cortical brain samples were homogenized in 5 M guanidine and Aβ peptide was quantitated in these brain samples as well as plasma samples in an ELISA assay, where Aβ x-40 ELISA detects Aβ peptide N-terminal sequences containing the transmembrane region and ending at amino acid 40 at the C-terminus. The ELISA was performed as described in Johnson-Wood et al., PNAS February 1997, 94: 1550-1555, using capture antibody 266 (Aβ 16-23 specific) and biotinylated 2G3 (Aβ 40 specific) as reporter antibody. Results of cortical and plasma Aβ x-40 levels were statistically analyzed separately using a one-way Anova with a Dunnets post test analysis at the 0.05 significant level.

BACE1 [1] = molecular target: T1, BACE1 (Homo sapiens (Human), UniProt P56817); experiment: BACE1 AlphaScreen assay (displacement of biotinylated BACE1 binding site probe); details: read-out: BACE1 AS IC50
T1 sequence (P56817 46-501): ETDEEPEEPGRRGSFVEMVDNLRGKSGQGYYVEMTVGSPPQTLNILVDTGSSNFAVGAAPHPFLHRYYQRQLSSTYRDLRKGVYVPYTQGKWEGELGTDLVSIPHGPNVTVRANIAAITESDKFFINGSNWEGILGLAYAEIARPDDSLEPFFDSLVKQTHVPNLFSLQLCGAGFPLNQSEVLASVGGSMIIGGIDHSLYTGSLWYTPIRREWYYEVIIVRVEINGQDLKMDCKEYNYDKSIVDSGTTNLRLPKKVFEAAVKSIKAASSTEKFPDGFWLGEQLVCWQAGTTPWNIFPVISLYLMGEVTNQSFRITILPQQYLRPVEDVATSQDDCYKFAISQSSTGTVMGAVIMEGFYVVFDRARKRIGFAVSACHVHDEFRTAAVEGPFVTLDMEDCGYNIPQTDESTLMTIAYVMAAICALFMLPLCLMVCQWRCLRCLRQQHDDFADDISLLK

Cathepsin D = Cathepsin D (Homo sapiens (Human), UniProt P07339); experiment: Cathepsin D FP assay; assay type: biochemical; details: pH 4.5, read-out: CatD FP IC50
Cathepsin D, sequence (P07339 65-412, species assumed): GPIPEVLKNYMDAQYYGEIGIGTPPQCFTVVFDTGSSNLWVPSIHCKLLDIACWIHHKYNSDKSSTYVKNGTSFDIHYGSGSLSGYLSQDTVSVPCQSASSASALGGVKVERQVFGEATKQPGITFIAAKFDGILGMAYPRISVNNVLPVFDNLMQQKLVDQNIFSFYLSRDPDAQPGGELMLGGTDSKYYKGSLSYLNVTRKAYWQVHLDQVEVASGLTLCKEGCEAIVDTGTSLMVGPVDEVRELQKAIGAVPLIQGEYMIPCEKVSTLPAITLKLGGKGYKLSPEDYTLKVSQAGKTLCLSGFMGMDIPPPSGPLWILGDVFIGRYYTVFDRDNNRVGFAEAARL
Method in brief: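 AlphaScreen (PBS, 0.01% Tween-20, 0.05% BSA, pH 7.0): compound preincubated 15 min with BACE1 ([…]), then biotinylated binding-site probe 1 h, beads 2 h; IC50 from signal. FP (100 mM sodium acetate, pH 4.5, 0.001% Tween-20): added BACE1 (0.3 nM) or cathepsin D (1.8 nM), 30 min RT.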

[2] = system: BACE1 inhibition in HEKp293 cells transfected with APP751 gene (SWE293); experiment: SWE293 cellular assay: reduction of Aβ peptide production, ELISA; assay type: cell-based; details: Homo sapiens; dose at which Aβ level is reduced by 50%, HEKp293 SWE293 cells; read-out: SWE293 ED50
Method in brief: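 SWE293 cells (HEK293 carrying APP751), plated overnight at 37 °C, received 1:3 serially diluted compound for two successive 2 h exposures with washes between. Medium Aβ was captured on 266-antibody plates, detected with 3D6 antibody and streptavidin-AP fluorescent substrate, and quantified against an Aβ-40 standard curve.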

BACE1 [3] = molecular target: T1, BACE1; experiment: BACE1 FP assay; assay type: biochemical; details: pH 4.5

In the case of `CC#Cc1cncc(-c2csc([C@]3(C)CC4(CCOCC4)OC(N)=N3)c2)c1` [Compound 104], the “effect on brain Aβ x-40 levels” value (Aβ x-40 levels; 50 and 200 mg/kg oral) is reported as “no significant effect”.

For `C[C@@]1(c2cc(NC(=O)c3ccc(Cl)cn3)ccc2F)CC2(CCOCC2)SC(N)=N1` [Compound 151], the “duration of reduction in Aβ x-40 levels in CSF (relative to 12 hours in brain)” value (Aβ x-40 levels; 30 mg/kg oral, rat, various timepoints, CSF) was “longer” and the “duration of reduction in Aβ x-40 levels in brain samples” value (Aβ x-40 levels; 30 mg/kg oral, rat, various timepoints, brain) was “up to 12 hours”.

`CC1(c2cc(NC(=O)c3ccc(F)cn3)ccc2F)CC2(CCC2)OC(N)=N1` (stereo not shown) [Compound 125] was tested, and the “effect on brain Aβ x-40 levels” value (Aβ x-40 levels; 30 or 100 mg/kg oral) was “no significant effect”.

For `C[C@@]1(c2cc(NC(=O)c3ccc(F)cn3)ccc2F)CC2(CCOCC2)SC(N)=N1` [Compound 148], the “decrease of the mean Aβ x-40 compared to vehicle control in brain samples” value (from here on “decrease”) (Aβ x-40 levels; 10 mg/kg oral) was 23%, the “decrease” value (Aβ x-40 levels; 30 mg/kg oral) was 31% and the “decrease” value (Aβ x-40 levels; 60 mg/kg oral) was 31%. The “decrease” value (Aβ x-40 levels; 100 mg/kg oral) was 40%.

In the case of `C[C@@]1(c2cc(NC(=O)c3ccc(Cl)cn3)ccc2F)CC2(CC2)OC(N)=N1` [Compound 154], the “decrease” value (Aβ x-40 levels; 100 mg/kg oral) is reported as 25%.

For `C[C@]1(c2cc(NC(=O)c3ccc(F)cn3)ccc2F)CC2(CCC2)SC(N)=N1` [Compound 9-143, (R)—N-(3-(6-amino-8-methyl-5-thia-7-azaspiro[3.5]non-6-en-8-yl)-4-fluorophenyl)-5-fluoropicolinamide], the IC50 (BACE1 [1]) was over 7.5 µM, the IC50 (Cathepsin D) was over 30 µM and the IC50 [2] was 6.22 µM. It also gave an IC50 (BACE1 [3]) of 51.8 µM.

For `CC1(c2cc(NC(=O)c3ccc(Cl)cn3)ccc2F)N=C(N)OC2(CCC2)C1(F)F` (stereo not shown) [Compound 9-160, N-(3-(6-amino-9,9-difluoro-8-methyl-5-oxa-7-azaspiro[3.5]non-6-en-8-yl)-4-fluorophenyl)-5-chloropicolinamide], the IC50 (BACE1 [1]) was 0.0195 µM, the IC50 (Cathepsin D) was over 30 µM and the IC50 [2] was 0.268 µM. For the same molecule, the IC50 (BACE1 [3]) was 0.066 µM.

With `C[C@@]1(c2cc(NC(=O)c3ccc(F)cn3)ccc2F)CC2(CCOCC2)OC(N)=N1` [Compound 9-128, (S)—N-(3-(2-amino-4-methyl-1,9-dioxa-3-azaspiro[5.5]undec-2-en-4-yl)-4-fluorophenyl)-5-fluoropicolinamide] the IC50 (BACE1 [1]) was 0.004 µM, the IC50 (Cathepsin D) was over 30 µM and the IC50 [2] was 0.009 µM. It also gave an IC50 (BACE1 [3]) of 0.112 µM.

In the case of `CC#Cc1cncc(-c2csc(C3(C)CC4(CCC4)OC(N)=N3)c2)c1` (stereo not shown) [Compound 8-103, 8-methyl-8-(4-(5-(prop-1-ynyl)pyridin-3-yl)thiophen-2-yl)-5-oxa-7-azaspiro[3.5]non-6-en-6-amine], the IC50 (BACE1 [1]) is reported as 0.03 µM, the IC50 (Cathepsin D) is reported as 7.92 µM and the IC50 [2] is reported as 0.582 µM. It also gave an IC50 (BACE1 [3]) of 1.36 µM.
